# Target: T1, GTPase KRas [1-37] (Homo sapiens, UniProt G3V5T7)
# T1 construct: 1-37
# Assay: inhibition of fluorescent GTP binding to wild-type Ras – biochemical, pyrazoline analogs, multiplex bead flow cytometry, SAR follow-up (AID 2047)
# Conditions: not given
# T1 sequence (G3V5T7 whole entry): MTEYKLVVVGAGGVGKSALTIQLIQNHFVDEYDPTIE
row,EC50 [µM],SMILES
1,> 30,"Cc1ccccc1N1N=C(c2ccccc2)CC1c1ccc(N(C)C)cc1 (configuration not stated) [N,N-dimethyl-4-[2-(2-methylphenyl)-5-phenyl-3,4-dihydropyrazol-3-yl]aniline]"
2,> 30,CN(C)c1ccc(C2C[C-](c3ccccc3)N=[N+]2c2ccc([N+](=O)[O-])cc2)cc1 (configuration not stated)
3,> 30,Cc1onc(-c2ccccc2)c1-c1ccc(S(N)(=O)=O)cc1
4,> 30,COc1ccc(C2CC(c3ccncc3)=NN2c2ccc(S(N)(=O)=O)cc2)cc1 (configuration not stated)
5,> 30,O=S(=O)(c1ccc(N2N=C(c3ccccc3)CC2c2ccccc2)cc1)C(F)F (configuration not stated)
6,> 30,NS(=O)(=O)c1ccc(N2N=C(c3ccccc3)CC2c2ccccc2Cl)cc1 (configuration not stated) [KUC103446N]
7,> 30,Brc1ccc(N2N=C(c3ccccc3)CC2c2ccccc2)cc1 (configuration not stated)

# The remaining lines, values behind:
row,SMILES,EC50 [µM]
1,NS(=O)(=O)c1ccc(N2N=C(c3ccccc3)CC2c2cccc(Br)c2)cc1 (configuration not stated) [UNM-0000306147],> 30
2,Cc1cccc(C2CC(c3ccccc3)=NN2c2ccc(S(N)(=O)=O)cc2)c1 (configuration not stated),> 30
3,FC(F)(F)c1cccc(N2N=C(c3ccc(Cl)cc3)CC2c2ccccc2Cl)c1 (configuration not stated) [UNM-0000305859],> 30
4,COc1ccc(C2CC(c3cccc(N(C)C)c3)=NN2c2ccc(S(N)(=O)=O)cc2)cc1 (configuration not stated),> 30
5,"O=[N+]([O-])c1cccc(C2C[C-](c3ccc(F)cc3)N=[N+]2c2ccccc2)c1 (configuration not stated) [5-(4-fluorophenyl)-3-(3-nitrophenyl)-2-phenyl-3,4-dihydropyrazole]",> 30
6,"O=S(=O)(c1ccc(N2N=C(c3ccc(Br)cc3)CC2c2ccccc2)cc1)C(F)F (configuration not stated) [5-(4-bromophenyl)-2-[4-(difluoromethylsulfonyl)phenyl]-3-phenyl-3,4-dihydropyrazole]",> 30
7,COc1ccc(C2CC(C(C)(C)C)=NN2c2ccc(S(N)(=O)=O)cc2)cc1 (configuration not stated) [KUC103450N],> 30
8,COc1ccc(C2CC(c3ccccc3OC)=NN2c2ccc(S(N)(=O)=O)cc2)cc1 (configuration not stated),> 30
9,"COc1ccc(C2CC(c3ccccc3Cl)=NN2c2ccc(S(N)(=O)=O)cc2)cc1 (configuration not stated) [4-[5-(2-chlorophenyl)-3-(4-methoxyphenyl)-3,4-dihydropyrazol-2-yl]benzenesulfonamide]",> 30
10,CN(C)c1ccc(C2CC(c3ccc(Br)cc3)=NN2c2ccccc2)cc1 (configuration not stated) [UNM-0000305846],> 30
11,"COc1ccc(C2CC(c3cccc(OC)c3)=NN2c2ccc(S(N)(=O)=O)cc2)cc1 (configuration not stated) [4-[5-(3-methoxyphenyl)-3-(4-methoxyphenyl)-3,4-dihydropyrazol-2-yl]benzenesulfonamide]",> 30
12,"COc1ccc(C2C[C-](c3ccccc3)N=[N+]2c2ccc([N+](=O)[O-])cc2)cc1 (configuration not stated) [3-(4-methoxyphenyl)-2-(4-nitrophenyl)-5-phenyl-3,4-dihydropyrazole]",> 30
13,O=[N+]([O-])c1ccc([N+]2=N[C-](c3ccccc3)CC2c2ccccc2)cc1 (configuration not stated),> 30

# Same assay, conditions: inactive by the depositor's call
row,SMILES,EC50 [µM]
1,COc1ccc(C2=NN(c3ccccc3F)C(c3ccc(F)cc3)C2)cc1 (configuration not stated) [UNM-0000305860],13.5
2,COc1ccc(C2CC(c3ccc(Cl)cc3)=NN2c2ccccc2)cc1OC (configuration not stated) [UNM-0000305858],0.079

# Source: BindingDB's records for doi:10.7270/Q2KK9971 (Nmmlsc, 2009)
